# Source: ChEMBL document CHEMBL3407452, “Linear and branched alkyl-esters and amides of gallic acid and other (mono-, di- and tri-) hydroxy benzoyl derivatives as promising anti-HCV inhibitors” (Eur J Med Chem, 2015)
# The source made the active and inactive calls. The rule behind the calls is not given here.
# What was measured:
# [1] = tested on: Human immunodeficiency virus 1; assay: Antiviral activity against HIV1 3B infected in human CEM cells assessed as reduction in virus-induced cytopathicity after 4 to 5 days by microscopy based syncytium cell formation assay; assay type: functional, organism-based, CCRF-CEM
# [2] = tested on: Human immunodeficiency virus 2; assay: Antiviral activity against HIV2 ROD infected in human CEM cells assessed as reduction in virus-induced cytopathicity after 4 to 5 days by microscopy based syncytium cell formation assay; assay type: functional, organism-based, ISOLATE ROD, CCRF-CEM
# Hepatitis C virus = assay: Antiviral activity against HCV genotype 1b I389luc-ubi-neo/NS3-3'/5.1 replicons infected in human Huh5-2 HCV subgenomic replicon-containing cells assessed as reduction in virus replication after 3 days by luciferase reporter gene assay; assay type: functional, Hepacivirus hominis; conditions: for EC90: Hepacivirus hominis
# [3] = Cytotoxicity against human CEM cells assessed as inhibition of cell proliferation; assay type: cell-based; conditions: CEM cells (CCRF-CEM)
# Vaccinia virus = assay: Antiviral activity against vaccinia virus; assay type: functional, organism-based; conditions: Orthopoxvirus vaccinia
# [4] = tested on: Vesicular stomatitis virus; assay: Antiviral activity against vesicular stomatitis virus; assay type: functional, organism-based
# Coxsackievirus B4 = assay: Antiviral activity against human coxsackievirus B4; assay type: functional, organism-based
# [5] = tested on: Respiratory syncytial virus; assay: Antiviral activity against RSV; assay type: functional, organism-based
# Human respirovirus 3 = assay: Antiviral activity against human parainfluenza virus 3; assay type: functional, organism-based
# Reovirus sp. = assay: Antiviral activity against reovirus; assay type: functional, organism-based
# Sindbis virus = assay: Antiviral activity against sindbis virus; assay type: functional, organism-based
# Influenza A virus H3N2 = assay: Antiviral activity against influenza A virus H3N2; assay type: functional, organism-based
# Influenza A virus = assay: Antiviral activity against influenza A virus (H1N1); assay type: functional, organism-based
# Punta Toro virus = assay: Antiviral activity against punta toro virus; assay type: functional, organism-based
# Feline coronavirus = assay: Antiviral activity against feline coronavirus; assay type: functional, organism-based
# Felid alphaherpesvirus 1 = assay: Antiviral activity against feline herpesvirus; assay type: functional, organism-based
# Chikungunya virus = assay: Antiviral activity against chikungunya virus; assay type: functional
# [6] = Human immunodeficiency virus 1, 3B, CCRF-CEM, read-out: EC50
# [7] = Human immunodeficiency virus 2, ISOLATE ROD, CCRF-CEM, read-out: EC50
smiles,measurement,setting,value
O=C(NCCCCCCCCCCCCNC(=O)c1ccccc1OCc1ccccc1)c1ccccc1OCc1ccccc1,EC50,[1]; ccrf-cem,Not Active
same,EC50,[2]; ccrf-cem,Not Active
same,EC50,Hepatitis C virus,Not Active
same,EC90,Hepatitis C virus,inactive
O=C(NCCCCCCNC(=O)c1ccc(OCc2ccccc2)c(OCc2ccccc2)c1OCc1ccccc1)c1ccc(OCc2ccccc2)c(OCc2ccccc2)c1OCc1ccccc1,EC50,[1]; ccrf-cem,Not Active
same,EC50,[2]; ccrf-cem,Not Active
same,EC50,Hepatitis C virus,Not Active
same,EC90,Hepatitis C virus,inactive
O=C(NCCN(CCNC(=O)c1ccc(OCc2ccccc2)c(OCc2ccccc2)c1OCc1ccccc1)CCNC(=O)c1ccc(OCc2ccccc2)c(OCc2ccccc2)c1OCc1ccccc1)c1ccc(OCc2ccccc2)c(OCc2ccccc2)c1OCc1ccccc1,EC50,[1]; ccrf-cem,Not Active
same,EC50,[2]; ccrf-cem,Not Active
same,EC50,Hepatitis C virus,Not Active
same,EC90,Hepatitis C virus,inactive
COc1cc(C(=O)NCCN(CCNC(=O)c2cc(OC)c(OC)c(OC)c2)CCNC(=O)c2cc(OC)c(OC)c(OC)c2)cc(OC)c1OC,EC50,[1]; ccrf-cem,Not Active
same,EC50,[2]; ccrf-cem,Not Active
same,EC50,Hepatitis C virus,Not Active
same,EC90,Hepatitis C virus,inactive
O=C(NCCCCCCCCNC(=O)c1ccc(OCc2ccccc2)c(OCc2ccccc2)c1OCc1ccccc1)c1ccc(OCc2ccccc2)c(OCc2ccccc2)c1OCc1ccccc1,EC50,[1]; ccrf-cem,Not Active
same,EC50,[2]; ccrf-cem,Not Active
same,EC50,Hepatitis C virus,Not Active
same,EC90,Hepatitis C virus,inactive
O=C(NCCCCNC(=O)c1ccccc1OCc1ccccc1)c1ccccc1OCc1ccccc1,EC50,[1]; ccrf-cem,Not Active
same,EC50,[2]; ccrf-cem,Not Active
same,EC50,Hepatitis C virus,Not Active
same,EC90,Hepatitis C virus,inactive
C[C@H](Cn1cnc2c(N)ncnc21)OCP(=O)(O)O [TENOFOVIR ANHYDROUS],CC50,[3],> 100 µM
O=C(NCCCCNC(=O)c1ccc(OCc2ccccc2)c(OCc2ccccc2)c1OCc1ccccc1)c1ccc(OCc2ccccc2)c(OCc2ccccc2)c1OCc1ccccc1,EC50,[1]; ccrf-cem,Not Active
same,EC50,[2]; ccrf-cem,Not Active
same,EC50,Hepatitis C virus,Not Active
same,EC90,Hepatitis C virus,inactive
COc1cc(C(=O)NCCCCCCCCCCNC(=O)c2cc(OC)c(OC)c(OC)c2)cc(OC)c1OC,EC50,[1]; ccrf-cem,Not Active
same,EC50,[2]; ccrf-cem,Not Active
same,EC50,Hepatitis C virus,Not Active
same,EC90,Hepatitis C virus,inactive
O=C(NCCCCNC(=O)c1cccc(O)c1O)c1cccc(O)c1O,EC50,[1]; [6],> 2 µM
same,CC50,[3],5.2 µM
same,Activity,Vaccinia virus,inactive
same,Activity,[4],inactive
same,Activity,Coxsackievirus B4,inactive
same,Activity,[5],inactive
same,Activity,Human respirovirus 3,inactive
same,Activity,Reovirus sp.,inactive
same,Activity,Sindbis virus,inactive
same,Activity,Influenza A virus H3N2,inactive
same,Activity,Influenza A virus,inactive
same,Activity,Punta Toro virus,inactive
same,Activity,Feline coronavirus,inactive
same,Activity,Felid alphaherpesvirus 1,inactive
same,Activity,Chikungunya virus,inactive
O=C(NCCCCCCCCCCNC(=O)c1ccc(OCc2ccccc2)c(OCc2ccccc2)c1OCc1ccccc1)c1ccc(OCc2ccccc2)c(OCc2ccccc2)c1OCc1ccccc1,EC50,[1]; ccrf-cem,Not Active
same,EC50,[2]; ccrf-cem,Not Active
same,EC50,Hepatitis C virus,Not Active
same,EC90,Hepatitis C virus,inactive
CN[C@@H]1[C@H](O[C@@H]2OC[C@@H](O)[C@H](O)[C@H]2O)[C@@H](O)[C@H](O[C@H]2c3cc(C)c(C(=O)N[C@H](C)C(=O)O)c(O)c3-c3c(cc4c(c3O)C(=O)c3cc(OC)cc(O)c3C4=O)[C@@H]2O)O[C@@H]1C [PRADIMICIN A],EC50,[1]; [6],3.3 µM
same,CC50,[3],> 100 µM
COc1cc(C(=O)NCCCCN(CCCNC(=O)c2cc(OC)c(OC)c(OC)c2)C(=O)c2cc(OC)c(OC)c(OC)c2)cc(OC)c1OC,EC50,[1]; ccrf-cem,Not Active
same,EC50,[2]; ccrf-cem,Not Active
same,EC50,Hepatitis C virus,Not Active
same,EC90,Hepatitis C virus,inactive
O=C(NCCNC(=O)c1ccccc1OCc1ccccc1)c1ccccc1OCc1ccccc1,EC50,[1]; ccrf-cem,Not Active
same,EC50,[2]; ccrf-cem,Not Active
same,EC50,Hepatitis C virus,Not Active
same,EC90,Hepatitis C virus,inactive
COc1cc(C(=O)NCCN(CCN(CCN(CCNC(=O)c2cc(OC)c(OC)c(OC)c2)C(=O)c2cc(OC)c(OC)c(OC)c2)C(=O)c2cc(OC)c(OC)c(OC)c2)C(=O)c2cc(OC)c(OC)c(OC)c2)cc(OC)c1OC,EC50,[1]; ccrf-cem,Not Active
same,EC50,[2]; ccrf-cem,Not Active
same,EC50,Hepatitis C virus,Not Active
same,EC90,Hepatitis C virus,inactive
COc1cc(C(=O)NCCN(CCNC(=O)c2cc(OC)c(OC)c(OC)c2)C(=O)c2cc(OC)c(OC)c(OC)c2)cc(OC)c1OC,EC50,[1]; ccrf-cem,Not Active
same,EC50,[2]; ccrf-cem,Not Active
same,EC50,Hepatitis C virus,Not Active
same,EC90,Hepatitis C virus,inactive
O=C(NCCNC(=O)c1ccccc1O)c1ccccc1O,EC50,[1]; [6],> 10 µM
same,EC50,[2]; [7],> 10 µM
same,CC50,[3],25 µM
same,Activity,Vaccinia virus,inactive
same,Activity,[4],inactive
same,Activity,Coxsackievirus B4,inactive
same,Activity,[5],inactive
same,Activity,Human respirovirus 3,inactive
same,Activity,Reovirus sp.,inactive
same,Activity,Sindbis virus,inactive
same,Activity,Influenza A virus H3N2,inactive
same,Activity,Influenza A virus,inactive
same,Activity,Punta Toro virus,inactive
same,Activity,Feline coronavirus,inactive
same,Activity,Felid alphaherpesvirus 1,inactive
same,Activity,Chikungunya virus,inactive
O=C(NCCCCN(CCCNC(=O)c1ccc(OCc2ccccc2)c(OCc2ccccc2)c1OCc1ccccc1)C(=O)c1ccc(OCc2ccccc2)c(OCc2ccccc2)c1OCc1ccccc1)c1ccc(OCc2ccccc2)c(OCc2ccccc2)c1OCc1ccccc1,EC50,[1]; ccrf-cem,Not Active
same,EC50,[2]; ccrf-cem,Not Active
same,EC50,Hepatitis C virus,Not Active
same,EC90,Hepatitis C virus,inactive
COc1cc(C(=O)NCCCCCCNC(=O)c2cc(OC)c(OC)c(OC)c2)cc(OC)c1OC,EC50,[1]; ccrf-cem,Not Active
same,EC50,[2]; ccrf-cem,Not Active
same,EC50,Hepatitis C virus,Not Active
same,EC90,Hepatitis C virus,inactive
O=C(NCCNC(=O)c1cccc(O)c1O)c1cccc(O)c1O,EC50,[1]; [6],> 10 µM
same,EC50,[2]; [7],> 10 µM
same,CC50,[3],19 µM
same,Activity,Vaccinia virus,inactive
same,Activity,[4],inactive
same,Activity,Coxsackievirus B4,inactive
same,Activity,[5],inactive
same,Activity,Human respirovirus 3,inactive
same,Activity,Reovirus sp.,inactive
same,Activity,Sindbis virus,inactive
same,Activity,Influenza A virus H3N2,inactive
same,Activity,Influenza A virus,inactive
same,Activity,Punta Toro virus,inactive
same,Activity,Feline coronavirus,inactive
same,Activity,Felid alphaherpesvirus 1,inactive
same,Activity,Chikungunya virus,inactive
O=C(NCCCCCCCCCCCCNC(=O)c1ccc(OCc2ccccc2)c(OCc2ccccc2)c1OCc1ccccc1)c1ccc(OCc2ccccc2)c(OCc2ccccc2)c1OCc1ccccc1,EC50,[1]; ccrf-cem,Not Active
same,EC50,[2]; ccrf-cem,Not Active
same,EC50,Hepatitis C virus,Not Active
same,EC90,Hepatitis C virus,inactive
COc1cccc(C(=O)NCCCCNC(=O)c2cccc(OC)c2OC)c1OC,EC50,[1]; ccrf-cem,Not Active
same,EC50,[2]; ccrf-cem,Not Active
same,EC50,Hepatitis C virus,Not Active
same,EC90,Hepatitis C virus,inactive
CCCCCCCCOC(=O)c1cc(O)c(O)c(O)c1 [OCTYL_GALLATE],EC50,[1]; [6],> 2 µM
same,EC50,[2]; [7],> 2 µM
same,CC50,[3],11 µM
same,Activity,Vaccinia virus,inactive
same,Activity,[4],inactive
same,Activity,Coxsackievirus B4,inactive
same,Activity,[5],inactive
same,Activity,Human respirovirus 3,inactive
same,Activity,Reovirus sp.,inactive
same,Activity,Sindbis virus,inactive
same,Activity,Influenza A virus H3N2,inactive
same,Activity,Influenza A virus,inactive
same,Activity,Punta Toro virus,inactive
same,Activity,Feline coronavirus,inactive
same,Activity,Felid alphaherpesvirus 1,inactive
same,Activity,Chikungunya virus,inactive
O=C(O)c1cc(O)c(O)c(O)c1 [GALLIC ACID],EC50,[1]; [6],> 50 µM
same,EC50,[2]; [7],> 50 µM
same,CC50,[3],> 250 µM
same,Activity,Vaccinia virus,inactive
same,Activity,[4],inactive
same,Activity,Coxsackievirus B4,inactive
same,Activity,[5],inactive
same,Activity,Human respirovirus 3,inactive
same,Activity,Reovirus sp.,inactive
same,Activity,Sindbis virus,inactive
same,Activity,Influenza A virus H3N2,inactive
same,Activity,Influenza A virus,inactive
same,Activity,Punta Toro virus,inactive
same,Activity,Feline coronavirus,inactive
same,Activity,Felid alphaherpesvirus 1,inactive
same,Activity,Chikungunya virus,inactive
COc1cc(C(=O)NCCCCNC(=O)c2cc(OC)c(OC)c(OC)c2)cc(OC)c1OC,EC50,[1]; ccrf-cem,Not Active
same,EC50,[2]; ccrf-cem,Not Active
same,EC50,Hepatitis C virus,Not Active
same,EC90,Hepatitis C virus,inactive
COc1cc(C(=O)NCCCCCCCCCCCCNC(=O)c2cc(OC)c(OC)c(OC)c2)cc(OC)c1OC,EC50,[1]; ccrf-cem,Not Active
same,EC50,[2]; ccrf-cem,Not Active
same,EC50,Hepatitis C virus,Not Active
same,EC90,Hepatitis C virus,inactive
O=C(NCCCOCCOCCOCCCNC(=O)c1ccc(OCc2ccccc2)c(OCc2ccccc2)c1OCc1ccccc1)c1ccc(OCc2ccccc2)c(OCc2ccccc2)c1OCc1ccccc1,EC50,[1]; ccrf-cem,Not Active
same,EC50,[2]; ccrf-cem,Not Active
same,EC50,Hepatitis C virus,Not Active
same,EC90,Hepatitis C virus,inactive
COc1cccc(C(=O)NCCNC(=O)c2cccc(OC)c2OC)c1OC,EC50,[1]; ccrf-cem,Not Active
same,EC50,[2]; ccrf-cem,Not Active
same,EC50,Hepatitis C virus,Not Active
same,EC90,Hepatitis C virus,inactive
COc1cccc(C(=O)NCCCCCCCCCCCCNC(=O)c2cccc(OC)c2OC)c1OC,EC50,[1]; ccrf-cem,Not Active
same,EC50,[2]; ccrf-cem,Not Active
same,EC50,Hepatitis C virus,Not Active
same,EC90,Hepatitis C virus,inactive
COc1cc(C(=O)NCCCCCCCCNC(=O)c2cc(OC)c(OC)c(OC)c2)cc(OC)c1OC,EC50,[1]; ccrf-cem,Not Active
same,EC50,[2]; ccrf-cem,Not Active
same,EC50,Hepatitis C virus,Not Active
same,EC90,Hepatitis C virus,inactive
